Activity calls are given as the source filed them. The calls are words filed in the database; no cut-off is given here.
Tests used:
SNB-19 = assay: Cytotoxicity against human SNB19 cells after 48 hrs by SRB assay; type: functional; details: SNB-19, 48 h
HCT-15 = assay: Cytotoxicity against human HCT15 cells after 48 hrs by SRB assay; type: functional; details: HCT-15, 48 h
A498 = assay: Cytotoxicity against human A498 cells after 48 hrs by SRB assay; type: functional; details: A498, 48 h
HOP-62 = assay: Cytotoxicity against human HOP62 cells after 48 hrs by SRB assay; type: functional; details: HOP-62, 48 h
[1] = Plasma concentration in CD1 mouse at 18 mg/kg, iv administered as single dose measured after 30 mins; type: ADME, organism-based; set-up: dose 18 mg/kg, route intravenous
SF-268 = assay: Cytotoxicity against human SF268 cells after 48 hrs by SRB assay; type: functional; details: SF-268, 48 h
M14 = assay: Cytotoxicity against human M14 cells after 48 hrs by SRB assay; type: functional; details: M14, 48 h
Mus musculus [2] = assay: Toxicity in athymic nu/nu Harlan mouse xenografted with human COLO205 cells assessed as change in body weight at 20 mg/kg, iv administered Q3D for 10 days relative to control; type: organism-based, COLO 205; set-up: dose 20 mg/kg, route intravenous; details: in vivo, 240 h
[3] = Plasma concentration in CD1 mouse at 18 mg/kg, iv administered as single dose measured after 120 mins; type: ADME, organism-based; set-up: dose 18 mg/kg, route intravenous
Mus musculus [4] = assay: Toxicity in iv dosed CD1 mouse administered Q3D for 8 days; type: organism-based; details: in vivo, 192 h
SK-OV-3 = assay: Cytotoxicity against human SKOV3 cells after 48 hrs by SRB assay; type: functional; details: SK-OV-3, 48 h
MOLT-4 = assay: Cytotoxicity against human MOLT4 cells after 48 hrs by SRB assay; type: functional; details: MOLT-4, 48 h
HCT-116 = assay: Cytotoxicity against human HCT116 cells after 48 hrs by SRB assay; type: functional; details: HCT-116, 48 h
Mus musculus [5] = assay: Toxicity in athymic nu/nu Harlan mouse xenografted with human SK-MEL-2 cells assessed as mortality at 20 mg/kg, iv administered Q3D for 10 days relative to control; type: organism-based; set-up: dose 20 mg/kg, route intravenous; details: in vivo, 240 h
COLO 205 [6] = assay: Antitumor activity against human COLO205 cells xenografted in athymic nu/nu Harlan mouse assessed as tumor growth inhibition at 20 mg/kg, iv administered Q3D for 10 days relative to control; type: functional, organism-based; set-up: dose 20 mg/kg
Mus musculus [7] = assay: Toxicity in athymic nu/nu Harlan mouse xenografted with human COLO205 cells assessed as mortality at 20 mg/kg, iv administered Q3D for 10 days relative to control; type: organism-based, COLO 205; set-up: dose 20 mg/kg, route intravenous; details: in vivo, 240 h
MDA-MB-231 = assay: Cytotoxicity against human MDA-MB-231 cells after 48 hrs by SRB assay; type: functional; details: MDA-MB-231, 48 h
UACC-62 = assay: Cytotoxicity against human UACC62 cells after 48 hrs by SRB assay; type: functional; details: UACC-62, 48 h
RXF 393 = assay: Cytotoxicity against human RXF393 cells after 48 hrs by SRB assay; type: functional; details: RXF 393, 48 h
UACC-257 = assay: Cytotoxicity against human UACC257 cells after 48 hrs by SRB assay; type: functional; details: UACC-257, 48 h
[8] = Toxicity in iv dosed CD1 mouse administered as single dose; type: organism-based; details: in vivo
CCRF-CEM = assay: Cytotoxicity against human CCRF-CEM cells after 48 hrs by SRB assay; type: functional
OVCAR-4 = assay: Cytotoxicity against human OVCAR4 cells after 48 hrs by SRB assay; type: functional; details: OVCAR-4, 48 h
TK-10 = assay: Cytotoxicity against human TK10 cells after 48 hrs by SRB assay; type: functional; details: TK-10, 48 h
NCI-H460 = assay: Cytotoxicity against human NCI-H460 cells after 48 hrs by SRB assay; type: functional; details: NCI-H460, 48 h
SF-539 = assay: Cytotoxicity against human SF539 cells after 48 hrs by SRB assay; type: functional; details: SF-539, 48 h
[9] = Toxicity in ip dosed CD1 mouse administered as single dose; type: organism-based; details: in vivo
LOX IMVI = assay: Cytotoxicity against human LOXIMVI cells after 48 hrs by SRB assay; type: functional
SK-MEL-2 = assay: Antitumor activity against human SK-MEL-2 cells xenografted in athymic nu/nu Harlan mouse assessed as tumor growth inhibition at 10 mg/kg, iv administered Q2D for 10 days relative to control; type: functional, organism-based; set-up: dose 10 mg/kg
IGROV-1 = assay: Cytotoxicity against human IGROV1 cells after 48 hrs by SRB assay; type: functional; details: IGROV-1, 48 h
CAKI-1 = assay: Cytotoxicity against human Caki1 cells after 48 hrs by SRB assay; type: functional; details: CAKI-1, 48 h
OVCAR-5 = assay: Cytotoxicity against human OVCAR5 cells after 48 hrs by SRB assay; type: functional; details: OVCAR-5, 48 h
UO-31 = assay: Cytotoxicity against human UO31 cells after 48 hrs by SRB assay; type: functional; details: UO-31, 48 h
K562 = assay: Cytotoxicity against human K562 cells after 48 hrs by SRB assay; type: functional; details: K562, 48 h
A549 = assay: Cytotoxicity against human A549 cells after 48 hrs by SRB assay; type: functional; details: A549, 48 h, read-out: pGI50 (converted)
Mus musculus [10] = assay: Toxicity in iv dosed CD1 mouse administered Q2D for 8 days; type: organism-based; details: mouse, in vivo, 192 h
HT-29 = assay: Cytotoxicity against human HT-29 cells after 48 hrs by SRB assay; type: functional; details: HT-29, 48 h
COLO 205 [11] = assay: Cytotoxicity against human COLO205 cells after 48 hrs by SRB assay; type: functional; details: COLO 205, 48 h, read-out: pGI50 (converted)
SR = assay: Cytotoxicity against human SR cells after 48 hrs by SRB assay; type: functional
Hs-578T = assay: Cytotoxicity against human Hs578T cells after 48 hrs by SRB assay; type: functional

CO[C@@H]([C@@H]1Cc2cc3cc(O[C@H]4C[C@@H](O[C@H]5C[C@@H](O)[C@H](O)[C@@H](C)O5)[C@H](O)[C@@H](C)O4)c(C)c(O)c3c(O)c2C(=O)[C@H]1O[C@H]1C[C@@H](O[C@H]2C[C@@H](O[C@H]3C[C@H](O)[C@H](O)[C@@H](C)O3)[C@H](O)[C@@H](C)O2)[C@H](O)[C@@H](C)O1)[C@@H](O)C(C)=O
GI50 (SNB-19): 28.2 nM | GI50 (HCT-15): 1050 nM | GI50 (A498): 14.4 nM | GI50 (HOP-62): 24.6 nM | concentration at 0.5 h [1]: 1700 nM | GI50 (SF-268): 22.4 nM | GI50 (M14): 45.7 nM | Activity (Mus musculus [2]): Non-toxic | concentration at 2 h [3]: < 100 nM | MTD (Mus musculus [4]): 24 mg/kg | GI50 (SK-OV-3): 26.3 nM | GI50 (MOLT-4): 19.9 nM | GI50 (HCT-116): 16.6 nM | Activity (Mus musculus [5]): Non-toxic | TGI (COLO 205 [6]): Active | Activity (Mus musculus [7]): Non-toxic | GI50 (MDA-MB-231; read-out: GI50): 50 nM | GI50 (MDA-MB-231; read-out: pGI50 (converted)): 47.9 nM | GI50 (UACC-62): 12 nM | GI50 (RXF 393): 29.5 nM | GI50 (UACC-257): 41.7 nM | MTD [8]: 64 mg/kg | GI50 (CCRF-CEM): 24.6 nM | GI50 (OVCAR-4): 56.2 nM | GI50 (TK-10): 52.5 nM | GI50 (NCI-H460): 17.8 nM | GI50 (SF-539): 25.1 nM | MTD [9]: 200 mg/kg | GI50 (LOX IMVI): 16.6 nM | TGI (SK-MEL-2): Active | GI50 (IGROV-1; read-out: GI50): 10 nM | GI50 (IGROV-1; read-out: pGI50 (converted)): 10.5 nM | GI50 (CAKI-1): 138 nM | GI50 (OVCAR-5): 39.8 nM | GI50 (UO-31): 69.2 nM | GI50 (K562): 17.4 nM | GI50 (A549): 20.4 nM | MTD (Mus musculus [10]): 12 mg/kg | GI50 (HT-29): 21.4 nM | GI50 (COLO 205 [11]): 21.4 nM | GI50 (SR): 12.9 nM | GI50 (Hs-578T): 16.2 nM

Source: ChEMBL document CHEMBL2150933 (J Med Chem, 2012)
